Data taken from ChEMBL document CHEMBL1125853, “An acyliminium ion route to and Anti phe-gly dipeptide mimetics” (Bioorg Med Chem Lett, 1991).
pKi: −log10 of the molar value.

Molecular target: Angiotensin-converting enzyme (Homo sapiens, UniProt P12821)
Assay: Inhibitory constant angiotensin converting enzyme

Angiotensin-converting enzyme, sequence (P12821 whole entry): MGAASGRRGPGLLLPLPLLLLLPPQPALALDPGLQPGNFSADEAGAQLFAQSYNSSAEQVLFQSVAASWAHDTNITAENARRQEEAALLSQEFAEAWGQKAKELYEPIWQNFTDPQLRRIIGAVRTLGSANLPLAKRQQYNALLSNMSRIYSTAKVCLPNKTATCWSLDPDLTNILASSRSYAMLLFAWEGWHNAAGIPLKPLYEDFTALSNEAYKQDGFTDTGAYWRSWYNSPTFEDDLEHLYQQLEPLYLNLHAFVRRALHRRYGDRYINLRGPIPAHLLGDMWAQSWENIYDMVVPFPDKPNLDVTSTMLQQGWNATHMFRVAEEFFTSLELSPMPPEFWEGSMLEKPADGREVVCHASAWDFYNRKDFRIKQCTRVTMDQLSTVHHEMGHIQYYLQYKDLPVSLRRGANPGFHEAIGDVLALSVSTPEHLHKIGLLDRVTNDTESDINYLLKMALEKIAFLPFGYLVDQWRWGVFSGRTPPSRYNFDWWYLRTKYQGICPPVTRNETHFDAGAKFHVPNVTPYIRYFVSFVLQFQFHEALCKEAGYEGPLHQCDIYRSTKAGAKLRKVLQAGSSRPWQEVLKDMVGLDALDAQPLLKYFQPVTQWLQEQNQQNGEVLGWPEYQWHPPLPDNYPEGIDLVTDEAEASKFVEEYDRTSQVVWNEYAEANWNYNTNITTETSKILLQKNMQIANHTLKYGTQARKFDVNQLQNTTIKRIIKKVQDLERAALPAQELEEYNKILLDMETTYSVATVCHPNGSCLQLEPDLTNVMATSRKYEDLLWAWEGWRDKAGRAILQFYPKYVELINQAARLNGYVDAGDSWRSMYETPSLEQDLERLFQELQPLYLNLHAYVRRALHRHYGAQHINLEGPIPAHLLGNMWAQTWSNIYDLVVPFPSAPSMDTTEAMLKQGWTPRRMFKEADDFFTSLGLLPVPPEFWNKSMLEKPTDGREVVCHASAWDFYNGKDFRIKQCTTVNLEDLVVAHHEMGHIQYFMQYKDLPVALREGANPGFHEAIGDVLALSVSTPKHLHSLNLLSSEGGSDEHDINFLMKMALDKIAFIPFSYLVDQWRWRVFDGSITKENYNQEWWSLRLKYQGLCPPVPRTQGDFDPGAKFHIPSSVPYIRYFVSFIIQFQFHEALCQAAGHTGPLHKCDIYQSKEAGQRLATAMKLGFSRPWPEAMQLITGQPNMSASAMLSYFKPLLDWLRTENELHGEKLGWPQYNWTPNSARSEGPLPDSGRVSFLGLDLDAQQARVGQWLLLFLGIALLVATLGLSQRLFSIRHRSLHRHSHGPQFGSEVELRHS

## O=C(O)CN1Cc2ccccc2CC(N[C@H](CCc2ccccc2)C(=O)O)C1=O (stereo partly specified)
  pKi: 8.00
